Molecules are shown by their SMILES.

What is called IC50 is the concentration that gives 50% inhibition.

Assay [1] deals with T1, mGluR4 (Homo sapiens, UniProt Q14833). Description: mGluR4 binding assay (filtration, [3H] radiotracer displacement, in presence of L-AP4). Particulars: membranes from CHO cells expressing human mGluR4; 20 uM L-AP4; 7 nM radiotracer; 1 hour at room temperature. On the set-up: expressed in transfected cells; host or cells: CHO cells. On the procedure: Membranes were prepared from CHO cells expressing the human mGluR4 receptor. Cells were harvested using trypsin and then washed in assay buffer, assay buffer contains 50 mM HEPES, 1 mM EDTA and protease inhibitors (Boehringer Mannheim catalog #1 836 170). Harvested cells were pelleted by centrifugation and stored at −80° C. for a minimum of 12 hours. Cells were resuspended in assay buffer and lysed by a polytron, a low speed spin, 2000×g for 10 min, was used to recover unbroken cells for additional treatment using the polytron. The cleared supernatant from the low speed spins was subjected to a high speed spin, 96,000×g for 1 hour. The membrane pellet from the high speed spin was resuspended in assay buffer and used in the mGluR4 binding assay.
T1 sequence (Q14833 33-912): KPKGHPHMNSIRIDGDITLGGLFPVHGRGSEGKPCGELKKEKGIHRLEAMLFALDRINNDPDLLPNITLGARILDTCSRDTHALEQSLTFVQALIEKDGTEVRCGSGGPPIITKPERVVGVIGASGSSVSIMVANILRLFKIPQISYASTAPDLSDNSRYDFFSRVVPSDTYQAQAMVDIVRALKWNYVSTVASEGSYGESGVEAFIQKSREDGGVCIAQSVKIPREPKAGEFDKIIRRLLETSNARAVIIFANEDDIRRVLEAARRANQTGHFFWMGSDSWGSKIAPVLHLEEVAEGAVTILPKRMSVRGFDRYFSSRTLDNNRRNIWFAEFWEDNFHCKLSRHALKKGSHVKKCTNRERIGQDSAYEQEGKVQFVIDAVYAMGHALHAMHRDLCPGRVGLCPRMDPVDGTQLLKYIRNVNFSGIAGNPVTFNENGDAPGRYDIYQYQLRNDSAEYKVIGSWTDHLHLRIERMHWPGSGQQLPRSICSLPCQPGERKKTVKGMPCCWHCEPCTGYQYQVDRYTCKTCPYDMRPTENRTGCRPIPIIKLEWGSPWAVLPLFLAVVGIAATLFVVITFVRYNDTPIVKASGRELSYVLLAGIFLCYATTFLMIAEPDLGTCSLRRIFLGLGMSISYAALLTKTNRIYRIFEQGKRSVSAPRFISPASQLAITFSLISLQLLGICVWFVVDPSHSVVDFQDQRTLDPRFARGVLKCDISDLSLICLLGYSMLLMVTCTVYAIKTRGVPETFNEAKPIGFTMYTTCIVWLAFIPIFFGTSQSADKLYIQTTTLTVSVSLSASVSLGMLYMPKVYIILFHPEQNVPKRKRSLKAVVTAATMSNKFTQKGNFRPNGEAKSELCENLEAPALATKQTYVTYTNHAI
The binding assay follows a standard filtration binding paradigm. The binding buffer consists of 20 mM HEPES, 100 mM NaCl and 3 mM MgCl2, the pH of the buffer is 7.4. The assay is performed in a 96-well format with each well containing test compound, 25 to 50 ug of membrane protein, 20 uM L-AP4, and 7 nM radiotracer, [^3H]-N-[3-Chloro-4-(4-methyl-1,3-dioxo-1,3-dihydro-2H-isoindol-2-yl)phenyl]pyridine-2-carboxamide, which is disclosed in commonly owned U.S. patent application docket no. MRL-NOP-00030-US-PSP, filed contemporaneously with this application.
The binding reaction is incubated at room temperature for 1 hour, and then is passed through GF/B filter that was presoaked with 0.5% PEI. The cell membranes are collected on the filter and then washed five times with ˜5 ml ice cold binding buffer that contains 0.01% BSA. The washed filter plate is dried for 30 minutes at 37° C., scintillation fluid is added, and the amount of filter bound radioactivity is determined using a TopCount instrument. Total binding is determined in the absence of any test compound, but in the presence of the DMSO concentration that would result from the addition of test compound. To determine the level of non-specific binding for the radiotracer [^3H]-N-[3-Chloro-4-(4-methyl-1,3-dioxo-1,3-dihydro-2H-isoindol-2-yl)phenyl]pyridine-2-carboxamide, 5 uM of unlabeled […]N-[3-Chloro-4-(4-methyl-1,3-dioxo-1,3-dihydro-2H-isoindol-2-yl)phenyl]pyridine-2-carboxamide, is added to determine the level of non-specific binding.
A 10-point dose response, with either 2-fold or 3-fold dilution steps, is performed and curve fitting algorithms, suitable for a sigmoidal dose response relationship, are used to fit the data. The inflection point of the curve, or IC50, provides a measure of the affinity of a test compound for the mGluR4 receptor.

Assay [2] concerns the target T1, mGluR4. Description: Fluorescent Imaging Plate Reader (FLIPR) assay for mGluR4 potentiators. More on the design: expressed in transfected cells. It is filed as cell-based. Particulars: for EC50: inflection point of curve, potentiation of EC10 concentration of L-AP4 (30 nM), read-out: mGluR4 FLIPR Potency; for Emax: maximal activity relative to response with saturating concentration (10 uM) of agonist L-AP4, read-out: mGluR4 FLIPR % Max Efficacy. As to the method:
Fluorescent Imaging Plate Reader (FLIPR) Assay for mGluR4 Potentiators Cells are grown in Corning […] cm^2 flasks in DMEM growth media at 37° C. and 5% CO2. Growth media contains: […] The day prior to the experiment the cells were plated in growth medium (minus glutamine) at 50K cells/well into Becton-Dickinson 384-well PDL-coated plates using a Labsystems Multidrop (0.1 ml/well). The cells are grown overnight at 37° C. and 6% CO2. The following day, the cells are washed with Assay Buffer at 37° C. using a Skatron EMBLA cell washer (3×100 μl, aspiration 3 mm from bottom will leave 30 μl of buffer in each well). Assay buffer is Hanks balanced salt solution with 20 mM HEPES, 2.5 mM probenecid and 0.1% BSA. Fluorescent dye, 30 μl of the diluted Fluo-4-AM, is added to each well of the plate. […] The assay plates are placed back into the 6% CO2 incubator and incubated at 37° C. for 60 min. The 384-well plates are washed with Assay Buffer at 37° C. on using a cell washer (3×100 μl, aspiration 3 mm from bottom, will leave 30 μl of buffer in each well). The experimental run is initiated and after 30 sec a dose of test compound is applied. The fluorescent response elicited by test compound is monitored for 5 min, any positive response detected at this stage is attributed to agonist properties of the test compound. […] Controls for the assay include a no compound control, a positive control which is a saturating concentration, 10 uM, of the agonist L-AP4. A 10 point dose response, with either 2-fold or 3-fold dilution steps, is performed and curve fitting algorithms, suitable for a sigmoidal dose response relationship, are used to fit the data. The inflection point of the curve provides a measure of compound potency. A comparison of the maximal level of activity achieved for a test compound, relative to the response achieved with a saturating concentration of the agonist L-AP4 provides a measure of compound efficacy.

Turning to `O=C(Nc1ccc(S(=O)(=O)Nc2ccccc2Cl)cc1)c1ccccn1` [Example 1, N-(4-{[(2-Chlorophenyl)amino]sulfonyl}phenyl)pyridine-2-carboxamide], in assay [1], the IC50 was found to be 0.033 µM. Further, in assay [2], the EC50 amounted to 0.162 µM and the Emax stood at 111%.

For `COc1cc(NC(=O)c2ccccn2)ccc1S(=O)(=O)Nc1ccccc1` [Example 6], in assay [1], the IC50 came out at 6.08 µM. For the same compound, in assay [2], the EC50 is 3.94 µM and the Emax came to 70%.

`Cc1ccc(NS(=O)(=O)c2ccc(NC(=O)c3ccccn3)cc2)cc1` [Example 18]: in assay [1], the IC50 was 1.1 µM. Also, in assay [2], the EC50 stood at 1.35 µM and the Emax came to 93%.

In the case of `O=C(Nc1ccc(S(=O)(=O)Nc2ccccc2Br)cc1)c1ccccn1` [Example 30], the IC50 in assay [1] came out at 0.141 µM. Moreover, in assay [2], the EC50 worked out at 0.134 µM and the Emax was found to be 110%.

With `O=C(Nc1ccc(S(=O)(=O)Nc2ccccc2Cc2ccccc2)cc1)c1ccccn1` [Example 41], the IC50 in assay [1] worked out at 0.182 µM. In assay [2], the EC50 amounted to 0.48 µM and the Emax worked out at 124%.

The record behind these values is patent US20110243844A1, “SULFONAMIDE DERIVATIVE METABOTROPIC GLUTAMATE R4 LIGANDS” (priority 2008, published 2011).
